According to patent US10538230B2, “Thiol based resin system for removal of copper ions from hydraulic fluid” (THE BOEING COMPANY, priority 2015, dated 2020):

Assay: Removal of Cu[II] ions from hydraulic fluid with thiol compounds of structure (2), ICP measurement
Conditions: Skydrol LD-4 with about 10 ppm copper (II) acetylacetate; for [Cu] T = 24 hr.: after 24 hr. contact with equimolar amount of thiol compound; for [Cu] T = 0 hr.: before addition of the thiol compound
Description: Copper (II) acetylacetate is added to a sample of hydraulic fluid (e.g., Skydrol® LD-4 (Eastman Chemical Co. (Kingsport, Tenn. [US])), though any phosphate ester hydraulic fluid is suitable) to provide a final concentration of about 10 ppm copper (II) acetylacetate in the fluid. The amount of copper (II) is measured in the solution using an Inductively Coupled Plasma Spectrometer (ICP). An equimolar amount of a thiol compound of structure (2) is added to a portion of the copper (II) acetate-hydraulic fluid solution and the solution-mixture is mixed using a vortex mixer for 1.5 minutes. The solution-mixture is allowed to stand for 24 hours and the copper (II) content present in the solution is measured using an Inductively Coupled Plasma Spectrometer (ICP). The amount of copper sequestered or complexed by the thiol compound is determined from the difference in the copper (II) concentrations before and after addition of the thiol compound.
Table 5 presents results of Copper (II) content in aliquots of hydraulic fluid (Skydrol® LD-4) containing copper (II) acetylacetate to a final concentration of about 10 ppm copper (II) acetylacetate and contacted with an equimolar amount of the indicated thiol compounds for 24 hours.

Row | SMILES | [Cu] T = 24 hr. | [Cu] T = 0 hr.
1 | Sc1nnc(SSc2nnc(S)s2)s1 [II, 5,5′-Dithiobis(1,3,4-Thiadiazole-2(3H)-thione)] | 6.4 ppm | 11.1 ppm
2 | Sc1nnc(S)s1 [I, 1,3,4-Thiadiazole-2,5-dithiol] | 7.9 ppm | 10.8 ppm
